Test results: ChEMBL document CHEMBL1255438, “Comparative activities of TR-700 (torezolid) against staphylococcal blood isolates collected in Spain” (2010)
Converted amounts (≈) assume the structure as drawn. The source made the active and inactive calls. No cut-off for these calls is given here.

Key:
Format in all cases: functional
[1] = tested on: Staphylococcus; assay: Antimicrobial activity against linezolid-susceptible coagulase-negative Staphylococcus assessed as percent susceptible strain by CLSI method
[2] = tested on: Staphylococcus aureus; assay: Antimicrobial activity against oxacillin-resistant Staphylococcus aureus by CLSI method
[3] = tested on: Staphylococcus aureus; assay: Antimicrobial activity against oxacillin-susceptible Staphylococcus aureus by CLSI method
[4] = tested on: Staphylococcus aureus; assay: Antimicrobial activity against oxacillin-susceptible Staphylococcus aureus assessed as percent susceptible strain by CLSI method
[5] = tested on: Staphylococcus; assay: Antimicrobial activity against oxacillin-resistant coagulase-negative Staphylococcus aureus by CLSI method
[6] = tested on: Staphylococcus; assay: Antimicrobial activity against oxacillin-susceptible coagulase-negative Staphylococcus aureus by CLSI method
[7] = tested on: Staphylococcus; assay: Antimicrobial activity against linezolid-resistant coagulase-negative Staphylococcus by CLSI method
[8] = tested on: Staphylococcus aureus; assay: Antimicrobial activity against linezolid-susceptible Staphylococcus aureus assessed as percent susceptible strain by CLSI method
[9] = tested on: Staphylococcus aureus; assay: Antimicrobial activity against linezolid-susceptible Staphylococcus aureus by CLSI method
[10] = tested on: Staphylococcus aureus; assay: Antimicrobial activity against methicillin-resistant Staphylococcus aureus by CLSI method
[11] = tested on: Staphylococcus aureus; assay: Antimicrobial activity against linezolid-resistant Staphylococcus aureus by CLSI method
[12] = tested on: Staphylococcus; assay: Antimicrobial activity against linezolid-susceptible coagulase-negative Staphylococcus by CLSI method
[13] = tested on: Staphylococcus; assay: Antimicrobial activity against linezolid-resistant coagulase-negative Staphylococcus assessed as percent susceptible strain by CLSI method
[14] = Antimicrobial activity against oxacillin-susceptible coagulase-negative Staphylococcus aureus assessed as percent susceptible strain by CLSI method
[15] = tested on: Staphylococcus; assay: Antimicrobial activity against Linezolid and methicillin-resistant coagulase-negative Staphylococcus by CLSI method

SMILES: CC(=O)N[C@@H]1[C@H](Oc2c3cc4cc2Oc2ccc(cc2Cl)[C@@H](O[C@@H]2O[C@@H](CO)[C@@H](O)[C@H](O)[C@@H]2NC(C)=O)[C@@H]2NC(=O)[C@H](NC(=O)[C@@H]4NC(=O)[C@H]4NC(=O)[C@@H](Cc5ccc(c(Cl)c5)O3)NC(=O)[C@H](N)c3ccc(O)c(c3)Oc3cc(O)cc4c3)c3ccc(O)c(c3)-c3c(O[C@H]4O[C@H](CO)[C@@H](O)[C@@H](O)[C@@H]4O)cc(O)cc3[C@@H](C(=O)O)NC2=O)O[C@@H](CO)[C@@H](O)[C@@H]1O
- Activity [1]: 94.5%
- MIC90 [2]: 1 µg/mL (≈ 0.566 µM)
- MIC50 [3]: ≤ 0.5 µg/mL
- MIC90 [3]: 1 µg/mL (≈ 0.566 µM)
- Activity [4]: 100%
- MIC50 [5]: 2 µg/mL (≈ 1.13 µM)
- MIC90 [5]: 8 µg/mL (≈ 4.53 µM)
- MIC50 [6]: 2 µg/mL (≈ 1.13 µM)
- MIC90 [6]: 4 µg/mL (≈ 2.26 µM)
- MIC50 [7]: 4 µg/mL (≈ 2.26 µM)
- Activity [8]: 100%
- MIC90 [9]: 1 µg/mL (≈ 0.566 µM)
- Activity [10]: Active
- MIC50 [11]: 1 µg/mL (≈ 0.566 µM)
- MIC50 [12]: 2 µg/mL (≈ 1.13 µM)
- MIC90 [12]: 8 µg/mL (≈ 4.53 µM)
- Activity [13]: 80%
- Activity [14]: 100%

SMILES: CCCCCCCCCC(=O)N[C@@H](Cc1c[nH]c2ccccc12)C(=O)N[C@H](CC(N)=O)C(=O)N[C@@H](CC(=O)O)C(=O)N[C@@H]1C(=O)NCC(=O)N[C@@H](CCCN)C(=O)N[C@@H](CC(=O)O)C(=O)N[C@H](C)C(=O)N[C@@H](CC(=O)O)C(=O)NCC(=O)N[C@H](CO)C(=O)N[C@@H]([C@H](C)CC(=O)O)C(=O)N[C@@H](CC(=O)c2ccccc2N)C(=O)O[C@@H]1C
- Activity [1]: 100%
- MIC50 [2]: 0.5 µg/mL (≈ 0.309 µM)
- MIC90 [2]: 0.5 µg/mL (≈ 0.309 µM)
- MIC50 [3]: 0.25 µg/mL (≈ 0.154 µM)
- MIC90 [3]: 0.5 µg/mL (≈ 0.309 µM)
- Activity [4]: 100%
- MIC50 [5]: 0.25 µg/mL (≈ 0.154 µM)
- MIC90 [5]: 0.5 µg/mL (≈ 0.309 µM)
- MIC50 [6]: 0.25 µg/mL (≈ 0.154 µM)
- MIC90 [6]: 0.5 µg/mL (≈ 0.309 µM)
- MIC50 [7]: 0.5 µg/mL (≈ 0.309 µM)
- Activity [8]: 100%
- MIC50 [9]: 0.25 µg/mL (≈ 0.154 µM)
- MIC90 [9]: 0.5 µg/mL (≈ 0.309 µM)
- Activity [10]: Active
- MIC [15]: 0.5 µg/mL (≈ 0.309 µM)
- MIC50 [11]: 0.5 µg/mL (≈ 0.309 µM)
- MIC50 [12]: 0.25 µg/mL (≈ 0.154 µM)
- MIC90 [12]: 0.5 µg/mL (≈ 0.309 µM)
- Activity [14]: 100%
